Experimental data taken from patent US5627169A, “Selective antagonists for GABArho receptor” (The Regents of The University of California, priority 1994, dated 1997).

Legend:
[1] = test system: GABAA receptors expressed by rat brain mRNA; assay: Xenopus oocytes expressing GABAA receptors from rat brain mRNA; format: cell-based
[2] = molecular target: GABArho receptors expressed by bovine retina RNA; assay: Electrical recording in Xenopus oocytes expressing GABArho receptors from bovine retina RNA; format: cell-based
Description: (§1) Electrical recording techniques and the Xenopus oocyte expression system were used to determine the sensitivity of a variety of commonly used GABAA and GABAB receptor ligands to GABArho receptors expressed by bovine retina RNA.

[3] = test system: GABAA receptors expressed by bovine retina mRNA; assay: Xenopus oocytes expressing GABAA receptors from bovine retina mRNA; format: cell-based
Description: as §1
When a methylphosphinic acid substituent was used to replace the carboxyl group of GABA in this compound, affects at GABAA receptors were prohibited, but relatively strong interactions at closed channel binding sites on GABArho receptors were detected.

cloned GABArho receptors = molecular target: T1, cloned GABArho receptors (Homo sapiens, UniProt P24046); assay: Membrane currents in Xenopus oocytes expressing cloned GABArho receptors; format: cell-based
T1 construct: expressed in transfected cells; host or cells: Xenopus oocytes injected with cloned receptor RNA
T1 sequence (P24046 22-479): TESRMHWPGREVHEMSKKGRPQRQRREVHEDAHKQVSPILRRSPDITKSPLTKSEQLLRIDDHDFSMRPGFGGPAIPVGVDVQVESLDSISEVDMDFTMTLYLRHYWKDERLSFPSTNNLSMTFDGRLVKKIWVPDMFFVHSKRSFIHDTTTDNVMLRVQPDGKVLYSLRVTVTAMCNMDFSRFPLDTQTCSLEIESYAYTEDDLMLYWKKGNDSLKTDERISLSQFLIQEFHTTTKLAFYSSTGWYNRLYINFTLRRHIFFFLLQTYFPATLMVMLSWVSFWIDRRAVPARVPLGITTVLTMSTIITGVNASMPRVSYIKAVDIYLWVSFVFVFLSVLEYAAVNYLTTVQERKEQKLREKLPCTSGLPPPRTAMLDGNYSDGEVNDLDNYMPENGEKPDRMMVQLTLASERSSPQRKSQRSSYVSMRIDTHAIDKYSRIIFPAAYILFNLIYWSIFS
Description: (§2) To test the new compounds synthesized, Xenopus oocytes were injected with the cloned GABA RNA and other oocytes were injected with native poly (A)^+ RNAs extracted from the rat cerebral cortex or spinal cord, bovine brain, rabbit brain, chick brain or optic lobe. […] The various concentrations of compound 7 were applied together with 10^-5M GABA.
To study the time to onset of antagonistic action by TPMPA, a timed trial utilizing pulsed application of GABA (10^-5 M) and TPMPA (8×10^-5 M) was begun. At the first marker pulse of 50 nA, GABA administration of GABA was begun. TPMPA was applied between the 2nd and 3rd markers, and normal Ringers solution (without GABA) was applied at the 4th marker pulse.

[4] = test system: chick brain GABAA receptors; assay: Membrane currents in Xenopus oocyte expressing chick brain GABAA receptors; format: cell-based; conditions: various concentrations applied together with 10^-5 M GABA
Description: as §2

[5] = test system: GABAA receptors expressed by native mRNAs from the brain; assay: Xenopus oocytes expressing GABAA receptors from native brain mRNAs of different animal species; format: cell-based
Description: as §2

GABArho receptors = conditions: cited from earlier work
[6] = pulsed application of GABA 10^-5 M and TPMPA 8×10^-5 M

## CP(=O)(O)CCCN [3-aminopropyl(methyl-)phosphinic acid]
[1]
  effects on GABAA receptors: no detectable effects
[2]; read-out: Ki as competitive antagonist at GABArho receptors
  Ki: 800 nM
[3]
  effects on GABAA receptors: no detectable effects

## CP(=O)(O)C1=CCNCC1 [Compound 7a, 1,2,5,6-tetrahydropyridine-4-methylphosphinic acid]
[2]; expressed by native bovine retina mRNA
  antagonism of GABArho receptors: potent and selective antagonist
Cloned GABArho receptors; 8×10^-5 M compound applied together with 10^-5 M GABA
  effect on membrane current response to GABA: abolishes almost completely the response to GABA
Cloned GABArho receptors; expressed by cloned GABArho receptor RNA
  antagonism of GABArho receptors: potent and selective antagonist
Cloned GABArho receptors; [6]
  onset of antagonistic action: rapid in onset
  recovery from antagonistic action: recovery was also rapid
[4]
  attenuation of currents elicited by activation of GABAA receptors: not greatly attenuated until quite high concentration were used
[5]
  blockage of GABAA receptors compared with GABArho receptors: blockage was less than that of GABArho receptors

## O=C(O)C1=CCNCC1 [isoguvacine]
[2]
  action on GABArho receptors: either as weak partial agonists or as competitive antagonists

## Oc1noc2c1CCNC2 [THIP, 4,5,6,7-tetrahydroisoxazolo-[5,4-c]-pyridin-3-ol]
[2]
  action on GABArho receptors: either as weak partial agonists or as competitive antagonists

## CN1CCc2cc3c(cc2[C@H]1[C@@H]1OC(=O)c2c1ccc1c2OCO1)OCO3 [bicuculline]
GABArho receptors
  sensitivity of GABArho receptors: insensitive

## NCC(CC(=O)O)c1ccc(Cl)cc1 (stereo not drawn) [baclofen]
GABArho receptors
  sensitivity of GABArho receptors: insensitive

## O=C(O)C1CCNCC1 [isonipecotic acid]
[2]
  action on GABArho receptors: either as weak partial agonists or as competitive antagonists
